Results: US20030181727A1, “Cyanine dyes” (Kabushiki Kaisha Hayashibara Seibutsu Kagaku Kenky, priority 1999, published 2003)

What was measured:
[1] = Light-resistance test: residual percentage of dye in thin layer on glass after 25 min exposure to 500 W xenon lamp; format: physicochemical; settings: 7 cm, from transmittance at absorption maximum; for Residual percentage of monomethine cyanine dye, With no light-resistant improver: control thin layer without improver; for Residual percentage of monomethine cyanine dye, With light-resistant improver: thin layer with formazan nickel complex of Chemical Formula 49 (15 mg dye + 2 mg improver in 3 ml TFP)
Protocol: Fifteen milligrams of either of the monomethine cyanine dyes in Table 2 was added to three milliliters of TFP, and as a light-resistant improver two milligrams of the formazan nickel complex represented by Chemical Formula 49 disclosed in Japanese Patent Application No. 163,036/99, titled “Formazan metal complexes” applied for by the same applicant as the present invention, and the contents were dissolved in the solvent with a 5-minute ultrasonic energization at ambient temperature. Thereafter, in a usual manner, a prescribed volume of the resulting solution was dropped on either surface of a polished glass substrate, 5 cm×5 cm, while the glass substrate was rotated at a rotation rate of 1,000 rpm for one minute to uniformly coat the solution thereupon, and sequentially blown with hot air and cold air to dry the coated solution. [drawing 10]
The resulting glass substrates coated with the monomethine cyanine dyes were measured for transmittance (T0) at the wavelengths of their absorption maxima, and then fixed to a position 7 cm apart from a 500 W xenon lamp and exposed with the light for 25 min while cold air was blowing to the substrates. Immediately after that, the resulting substrates were remeasured for transmittance (T) at the wavelengths of the absorption maxima of the monomethine cyanine dyes, and the transmittances of T and T0 for each monomethine cyanine dye were substituted for the Equation 1 to calculate the residual percentage (%) of each monomethine cyanine dye. In parallel, control systems with no light-resistant improver for each monomethine cyanine dye were provided and treated similarly as above. [formula]
As shown in the results in Table 2, in the systems with no light-resistant improver, up to 74% of the monomethine cyanine dye had changed with only a 25-min exposure of light to become incapable of exerting its inherent optical properties. However, in the systems with the formazan metal complex represented by Chemical Formula 49, all of the monomethine cyanine dyes still remained intact up to a level of over 93% without changing even after the exposure of light.

[2] = Visible absorption spectra of monomethine cyanine dyes in methanol solution and as thin layer on glass substrates; format: physicochemical; settings: for Wavelength of absorption maximum, Solution: dissolved in methanol; for Wavelength of absorption maximum, Thin layer: thin layer formed on glass substrate
Protocol: The monomethine cyanine dyes in Table 1 were measured for their visible absorption spectra when dissolved in methanol and formed on glass substrates, respectively. The results are tabulated in Table 1, and the visible absorption spectrum of the monomethine cyanine dye represented by Chemical Formula 17 when in a liquid form and in a thin-layer form are shown in FIG. 1.
As evident from the results in Table 1 and FIG. 1, the monomethine cyanine dyes tested had absorption maxima in relatively short wavelength visible regions, particularly, at wavelengths of 450 nm or less both in the forms of solution and thin layer. Most of these monomethine cyanine dyes had absorption maxima at wavelengths of 350-400 nm when in solution and thin layer forms, and the ends of their absorption maxima in their longer wavelength regions extended up to about 450 nm when in a thin layer form. The fact evidences that the light absorbents, comprising the monomethine cyanine dyes of the present invention, have sensitivity to a relatively short-wavelength visible light, and most of the light absorbents substantially absorb laser beams with wavelengths of 450 nm or less in their longer wavelength regions with their absorption maxima.

Residual percentage of monomethine cyanine dye, With no light-resistant improver [1] | Residual percentage of monomethine cyanine dye, With light-resistant improver [1] | Wavelength of absorption maximum, Solution [2] | Wavelength of absorption maximum, Thin layer [2] | Structure (SMILES)
80.6% | 100.0% | 379 nm | 375 nm | CC[n+]1c(C)csc1C=C1OC=C(C)N1C.[I-] [Chemical Formula 17]
98.7% | 100.0% | 380 nm | 371 nm | CC[n+]1c(C=C2Oc3ccc(-c4ccccc4)cc3N2C)oc2ccccc21.[I-] [Chemical Formula 6]
26.0% | 93.2% | 396 nm | 440 nm | CN1C(=CC2=[N+](C)c3ccccc3C2(C)C)Oc2ccccc21.[I-] [Chemical Formula 36]
